Experimental data taken from patent publication US20240246942A1, “KINASE INHIBITORS FOR THE TREATMENT OF NEURODEGENERATIVE DISEASES” (priority 2020, published 2024).

Experiments:
Assay in all cases: biochemical
[1] = biological target: T1, panel of 374 wild-type kinases (Homo sapiens, UniProt Q9UL54); conditions: read-out: % Enzyme Activity (relative to DMSO controls), kinase TAOK2/TAO1
T1 construct: purchased Reaction Biology Corporation
T1 sequence (Q9UL54 1-1235): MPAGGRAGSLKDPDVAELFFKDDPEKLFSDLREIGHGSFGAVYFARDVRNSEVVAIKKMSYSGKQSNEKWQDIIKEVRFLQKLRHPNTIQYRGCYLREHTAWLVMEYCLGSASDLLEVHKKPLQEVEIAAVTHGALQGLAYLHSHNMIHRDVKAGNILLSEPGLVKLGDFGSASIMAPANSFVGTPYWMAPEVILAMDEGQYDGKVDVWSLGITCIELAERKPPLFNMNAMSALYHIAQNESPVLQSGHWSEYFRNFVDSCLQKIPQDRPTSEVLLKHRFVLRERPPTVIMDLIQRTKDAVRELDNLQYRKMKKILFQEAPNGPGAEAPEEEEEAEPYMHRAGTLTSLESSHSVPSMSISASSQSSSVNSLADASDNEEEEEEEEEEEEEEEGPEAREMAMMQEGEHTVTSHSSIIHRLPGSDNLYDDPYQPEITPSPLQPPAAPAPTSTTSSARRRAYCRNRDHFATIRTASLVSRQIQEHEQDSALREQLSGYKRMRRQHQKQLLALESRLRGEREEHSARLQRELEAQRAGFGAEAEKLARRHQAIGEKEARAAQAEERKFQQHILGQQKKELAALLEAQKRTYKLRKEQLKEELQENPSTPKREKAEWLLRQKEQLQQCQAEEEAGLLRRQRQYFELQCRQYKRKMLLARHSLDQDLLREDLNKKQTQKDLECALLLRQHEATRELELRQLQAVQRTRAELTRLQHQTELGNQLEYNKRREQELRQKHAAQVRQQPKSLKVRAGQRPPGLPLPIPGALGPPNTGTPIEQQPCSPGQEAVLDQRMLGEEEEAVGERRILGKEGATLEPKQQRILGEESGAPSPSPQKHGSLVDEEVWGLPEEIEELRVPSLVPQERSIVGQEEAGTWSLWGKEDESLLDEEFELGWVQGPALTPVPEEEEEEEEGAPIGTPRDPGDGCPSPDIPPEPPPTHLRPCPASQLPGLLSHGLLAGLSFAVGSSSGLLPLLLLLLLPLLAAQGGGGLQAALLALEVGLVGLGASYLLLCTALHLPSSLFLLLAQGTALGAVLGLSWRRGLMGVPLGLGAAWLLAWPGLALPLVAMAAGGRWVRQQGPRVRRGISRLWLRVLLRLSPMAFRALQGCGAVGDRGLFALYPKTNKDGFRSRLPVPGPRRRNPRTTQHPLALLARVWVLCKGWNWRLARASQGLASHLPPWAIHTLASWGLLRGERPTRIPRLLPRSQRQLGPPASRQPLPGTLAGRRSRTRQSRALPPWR

[2] = biological target: T2, panel of 374 wild-type kinases (Homo sapiens, UniProt Q9UM73); conditions: read-out: % Enzyme Activity (relative to DMSO controls), ALK
T2 construct: purchased Reaction Biology Corporation
T2 sequence (Q9UM73 19-1620): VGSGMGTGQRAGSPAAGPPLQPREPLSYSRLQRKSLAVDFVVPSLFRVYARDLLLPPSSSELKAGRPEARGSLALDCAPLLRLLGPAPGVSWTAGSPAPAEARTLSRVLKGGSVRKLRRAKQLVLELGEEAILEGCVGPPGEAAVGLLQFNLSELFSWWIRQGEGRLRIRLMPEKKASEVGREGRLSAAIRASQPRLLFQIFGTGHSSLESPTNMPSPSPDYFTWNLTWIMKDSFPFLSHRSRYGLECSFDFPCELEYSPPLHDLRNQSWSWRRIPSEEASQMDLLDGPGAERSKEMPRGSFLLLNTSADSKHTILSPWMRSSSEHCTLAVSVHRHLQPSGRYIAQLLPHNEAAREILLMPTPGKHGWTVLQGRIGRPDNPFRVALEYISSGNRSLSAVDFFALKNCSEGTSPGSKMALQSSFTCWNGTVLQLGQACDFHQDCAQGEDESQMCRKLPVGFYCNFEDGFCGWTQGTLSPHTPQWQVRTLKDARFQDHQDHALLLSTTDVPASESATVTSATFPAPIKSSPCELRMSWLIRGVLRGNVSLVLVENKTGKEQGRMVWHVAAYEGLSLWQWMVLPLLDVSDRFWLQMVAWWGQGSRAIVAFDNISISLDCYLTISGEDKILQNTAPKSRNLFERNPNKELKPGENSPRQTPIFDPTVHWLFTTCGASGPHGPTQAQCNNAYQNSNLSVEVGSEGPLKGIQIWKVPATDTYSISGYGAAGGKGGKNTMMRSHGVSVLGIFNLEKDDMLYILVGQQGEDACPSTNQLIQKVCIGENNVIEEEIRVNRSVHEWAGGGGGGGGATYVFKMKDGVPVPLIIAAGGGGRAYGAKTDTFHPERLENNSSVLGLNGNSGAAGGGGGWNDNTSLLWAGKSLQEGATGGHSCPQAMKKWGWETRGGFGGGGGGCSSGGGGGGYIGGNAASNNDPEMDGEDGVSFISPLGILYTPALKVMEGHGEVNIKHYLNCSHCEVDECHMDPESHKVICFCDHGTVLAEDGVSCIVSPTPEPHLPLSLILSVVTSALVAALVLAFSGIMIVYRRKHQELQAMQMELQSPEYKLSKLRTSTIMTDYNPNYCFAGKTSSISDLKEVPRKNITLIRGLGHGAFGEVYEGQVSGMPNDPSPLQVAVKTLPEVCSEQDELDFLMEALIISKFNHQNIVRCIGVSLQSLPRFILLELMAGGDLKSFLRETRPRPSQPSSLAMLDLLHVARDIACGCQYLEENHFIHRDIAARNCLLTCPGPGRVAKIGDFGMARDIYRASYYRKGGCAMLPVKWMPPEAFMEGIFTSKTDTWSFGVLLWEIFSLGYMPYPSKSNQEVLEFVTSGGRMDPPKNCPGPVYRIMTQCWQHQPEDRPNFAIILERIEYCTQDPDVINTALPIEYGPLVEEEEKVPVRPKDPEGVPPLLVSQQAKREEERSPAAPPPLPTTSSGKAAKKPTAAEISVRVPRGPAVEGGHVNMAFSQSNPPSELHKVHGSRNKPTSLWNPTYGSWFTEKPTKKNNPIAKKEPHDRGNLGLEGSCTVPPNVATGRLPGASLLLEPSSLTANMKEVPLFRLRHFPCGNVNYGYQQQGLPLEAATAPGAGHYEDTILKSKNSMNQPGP

[3] = biological target: T3, panel of 374 wild-type kinases (Homo sapiens, UniProt P04629); conditions: read-out: % Enzyme Activity (relative to DMSO controls), kinase TRKA
T3 construct: purchased Reaction Biology Corporation
T3 sequence (P04629 33-796): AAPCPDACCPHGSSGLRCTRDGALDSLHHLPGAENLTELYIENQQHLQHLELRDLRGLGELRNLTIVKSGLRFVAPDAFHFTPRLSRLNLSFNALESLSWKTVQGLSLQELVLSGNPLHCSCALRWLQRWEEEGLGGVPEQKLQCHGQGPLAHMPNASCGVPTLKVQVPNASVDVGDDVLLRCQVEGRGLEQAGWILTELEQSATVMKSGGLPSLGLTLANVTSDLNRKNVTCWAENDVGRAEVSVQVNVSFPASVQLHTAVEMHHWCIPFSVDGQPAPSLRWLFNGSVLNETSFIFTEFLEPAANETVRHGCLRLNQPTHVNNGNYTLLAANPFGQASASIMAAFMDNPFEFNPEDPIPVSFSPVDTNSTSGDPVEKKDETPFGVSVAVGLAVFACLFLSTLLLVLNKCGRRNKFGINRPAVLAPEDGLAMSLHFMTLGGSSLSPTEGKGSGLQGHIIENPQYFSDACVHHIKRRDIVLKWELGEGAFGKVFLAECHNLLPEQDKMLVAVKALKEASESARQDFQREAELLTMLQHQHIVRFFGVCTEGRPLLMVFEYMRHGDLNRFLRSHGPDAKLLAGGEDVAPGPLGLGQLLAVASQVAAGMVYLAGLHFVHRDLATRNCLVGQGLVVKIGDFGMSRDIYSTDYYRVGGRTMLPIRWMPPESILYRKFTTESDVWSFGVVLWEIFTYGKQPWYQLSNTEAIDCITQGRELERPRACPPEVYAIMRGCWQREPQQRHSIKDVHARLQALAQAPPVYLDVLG

[4] = biological target: T4, panel of 374 wild-type kinases (Homo sapiens, UniProt Q99759); conditions: read-out: % Enzyme Activity (relative to DMSO controls), MEKK3
T4 construct: purchased Reaction Biology Corporation
T4 sequence (Q99759 1-626): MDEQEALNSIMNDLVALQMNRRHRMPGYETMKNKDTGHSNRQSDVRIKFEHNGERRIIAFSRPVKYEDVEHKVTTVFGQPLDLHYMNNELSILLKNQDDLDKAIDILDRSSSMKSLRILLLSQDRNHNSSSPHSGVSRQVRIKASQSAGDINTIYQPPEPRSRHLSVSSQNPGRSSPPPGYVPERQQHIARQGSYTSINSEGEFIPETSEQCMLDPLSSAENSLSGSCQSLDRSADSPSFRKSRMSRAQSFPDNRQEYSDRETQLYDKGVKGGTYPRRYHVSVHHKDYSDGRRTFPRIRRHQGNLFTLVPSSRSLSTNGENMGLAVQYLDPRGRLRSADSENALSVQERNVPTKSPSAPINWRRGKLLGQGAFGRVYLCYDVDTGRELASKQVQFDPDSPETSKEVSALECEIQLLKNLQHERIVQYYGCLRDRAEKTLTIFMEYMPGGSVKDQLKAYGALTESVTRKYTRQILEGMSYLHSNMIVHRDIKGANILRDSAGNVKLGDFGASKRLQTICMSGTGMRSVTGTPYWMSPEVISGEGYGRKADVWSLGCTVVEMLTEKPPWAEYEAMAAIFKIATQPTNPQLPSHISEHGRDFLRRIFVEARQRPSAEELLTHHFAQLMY

[5] = biological target: T5, panel of 374 wild-type kinases (Homo sapiens, UniProt P05771); conditions: read-out: % Enzyme Activity (relative to DMSO controls), kinase PKCb1
T5 construct: purchased Reaction Biology Corporation
T5 sequence (P05771 whole entry): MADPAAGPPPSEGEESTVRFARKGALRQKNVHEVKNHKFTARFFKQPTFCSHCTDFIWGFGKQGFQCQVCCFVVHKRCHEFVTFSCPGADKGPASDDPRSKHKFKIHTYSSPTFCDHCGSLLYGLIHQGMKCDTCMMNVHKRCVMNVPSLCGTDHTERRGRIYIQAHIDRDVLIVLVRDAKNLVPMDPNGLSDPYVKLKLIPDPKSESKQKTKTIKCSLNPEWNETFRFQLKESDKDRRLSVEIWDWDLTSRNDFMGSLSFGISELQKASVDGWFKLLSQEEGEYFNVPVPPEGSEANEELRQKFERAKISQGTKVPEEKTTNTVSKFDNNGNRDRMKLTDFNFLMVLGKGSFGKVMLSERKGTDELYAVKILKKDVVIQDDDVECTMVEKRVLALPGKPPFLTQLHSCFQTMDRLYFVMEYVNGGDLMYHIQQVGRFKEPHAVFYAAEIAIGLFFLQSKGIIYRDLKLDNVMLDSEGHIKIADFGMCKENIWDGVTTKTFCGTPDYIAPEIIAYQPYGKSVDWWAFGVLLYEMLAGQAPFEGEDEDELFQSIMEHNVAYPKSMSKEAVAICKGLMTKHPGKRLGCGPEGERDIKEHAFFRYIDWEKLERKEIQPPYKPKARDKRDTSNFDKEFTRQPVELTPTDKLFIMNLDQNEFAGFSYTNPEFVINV

[6] = biological target: T6, panel of 374 wild-type kinases (Homo sapiens, UniProt O75716); conditions: read-out: % Enzyme Activity (relative to DMSO controls), kinase STK16
T6 construct: purchased Reaction Biology Corporation
T6 sequence (O75716 whole entry): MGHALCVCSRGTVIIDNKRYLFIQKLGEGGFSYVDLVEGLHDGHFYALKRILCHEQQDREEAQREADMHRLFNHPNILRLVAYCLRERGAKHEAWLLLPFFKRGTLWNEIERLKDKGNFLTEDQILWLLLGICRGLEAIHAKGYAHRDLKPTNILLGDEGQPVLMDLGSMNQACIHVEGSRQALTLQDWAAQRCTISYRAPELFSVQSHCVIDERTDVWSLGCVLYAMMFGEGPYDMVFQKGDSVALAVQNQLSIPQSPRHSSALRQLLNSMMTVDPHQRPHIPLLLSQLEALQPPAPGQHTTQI

[7] = biological target: T7, panel of 374 wild-type kinases (Homo sapiens, UniProt P41743); conditions: read-out: % Enzyme Activity (relative to DMSO controls), kinase PKCiota
T7 construct: purchased Reaction Biology Corporation
T7 sequence (P41743 1-596): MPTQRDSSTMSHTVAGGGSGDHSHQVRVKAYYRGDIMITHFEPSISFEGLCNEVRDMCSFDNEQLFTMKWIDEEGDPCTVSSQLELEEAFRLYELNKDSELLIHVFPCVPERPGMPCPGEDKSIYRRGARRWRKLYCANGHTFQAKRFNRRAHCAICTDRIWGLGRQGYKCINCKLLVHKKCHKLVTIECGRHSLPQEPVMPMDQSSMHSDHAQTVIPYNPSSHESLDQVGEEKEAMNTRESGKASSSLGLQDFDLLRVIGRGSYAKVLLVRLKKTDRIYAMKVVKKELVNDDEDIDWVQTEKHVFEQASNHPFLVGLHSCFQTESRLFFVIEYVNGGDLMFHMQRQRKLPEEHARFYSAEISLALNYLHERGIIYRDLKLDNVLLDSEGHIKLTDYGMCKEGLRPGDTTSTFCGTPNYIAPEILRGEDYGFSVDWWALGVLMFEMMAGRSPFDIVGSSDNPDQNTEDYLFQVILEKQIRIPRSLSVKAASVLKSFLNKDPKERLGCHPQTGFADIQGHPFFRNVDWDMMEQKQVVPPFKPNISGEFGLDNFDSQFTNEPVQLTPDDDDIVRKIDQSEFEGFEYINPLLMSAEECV

With O=C(Nc1cnn(-c2csc(C(=O)NC3COC3)c2)c1)Nc1ccccc1Cl [Compound 17, 4-(4-(3-(2-chlorophenyl)ureido)-1H-pyrazol-1-yl)-N-(oxetan-3-yl)thiophene-2-carboxamide] as the molecule, how does the remaining activity at 5 µM [1] read?
Its remaining activity at 5 µM is 101%.

And the remaining activity at 5 µM [2]?
Its remaining activity at 5 µM is 101%.

And the remaining activity at 5 µM [3]?
The remaining activity at 5 µM was 100%.

And the remaining activity at 5 µM [4]?
The remaining activity at 5 µM was 113%.

What about the remaining activity at 5 µM [5] of the same molecule?
The remaining activity at 5 µM was 102%.

And the remaining activity at 5 µM [6]?
Its remaining activity at 5 µM is 98.6%.

What about the remaining activity at 5 µM [7] of the same molecule?
The remaining activity at 5 µM was 95.5%.

What does the source list for O=C(Nc1cnn(-c2csc(C(=O)NC3COC3)c2)c1)Nc1c(F)cccc1Cl [Compound 25, 4-(4-(3-(2-chloro-6-fluorophenyl)ureido)-1H-pyrazol-1-yl)-N-(oxetan-3-yl)thiophene-2-carboxamide]?
remaining activity at 5 µM [1]: 88.2%; remaining activity at 5 µM [2]: 89.2%; remaining activity at 5 µM [3]: 87.8%; remaining activity at 5 µM [4]: 81.9%; remaining activity at 5 µM [5]: 100%; remaining activity at 5 µM [6]: 107%; remaining activity at 5 µM [7]: 87.4%

For Cc1sc(C(=O)NC2COC2)cc1-n1cc(NC(=O)Nc2c(F)cccc2Cl)cn1 [Compound 27, 4-(4-(3-(2-chloro-6-fluorophenyl)ureido)-1H-pyrazol-1-yl)-5-methyl-N-(oxetan-3-yl)thiophene-2-carboxamide], which remaining activity at 10 µM ([1]; 10 uM) is on record?
The remaining activity at 10 µM was 93.3%.

What about the remaining activity at 10 µM ([2]; 10 uM) of the same molecule?
Its remaining activity at 10 µM is 100%.

What about the remaining activity at 10 µM ([3]; 10 uM) of the same molecule?
The remaining activity at 10 µM was 81%.

What about the remaining activity at 10 µM ([4]; 10 uM) of the same molecule?
Its remaining activity at 10 µM is 113%.

And the remaining activity at 10 µM ([5]; 10 uM)?
The remaining activity at 10 µM was 111%.

And the remaining activity at 10 µM ([6]; 10 uM)?
The remaining activity at 10 µM was 94.4%.

What about the remaining activity at 10 µM ([7]; 10 uM) of the same molecule?
The remaining activity at 10 µM was 90.8%.
